Assay results published in patent publication US11807625B2, “Capsid inhibitors for the prevention of HIV” (Gilead Sciences, Inc., priority 2019, dated 2023).

Experiment: PK of compound of Formula (Ia) after single subcutaneous dose of solution formulations in Wistar Han rats
Assay type: in vivo
Details: male, Wistar Han, rat, plasma, sc, 50 mg/kg, SC 50 mg/kg
Experimental: Formulations containing the compound of Formula (Ia), or a pharmaceutically acceptable salt thereof, were prepared as solutions and optionally administered subcutaneously or intramuscularly to rats, rabbits, and/or dogs.
(§1) A solution of about 400 mg/mL of the compound of Formula (Ia) having 19.14 w/w % water, 40.66 w/w % PEG 300, 35.20 w/w % of a sodium salt of a compound of Formula (Ia), and 5.00% ethanol was prepared. The solution was administered subcutaneously to male Wistar Han rats at a dose level of about 50 mg/kg and dose volume of 0.125 mL/kg and the pharmacokinetic (PK) profile was determined.
as §1, with “500” for “400”, “16.64” for “19.14”, “35.36” for “40.66”, “43.00” for “35.20”, “0.1” for “0.125”
(§2) A solution of about 400 mg/mL of the compound of Formula (Ia) having 17.00 w/w % water, 36.40 w/w % PEG 300, 35.20 w/w % of a sodium salt of a compound of Formula (Ia), 5.00 w/w % ethanol, and 6.40 w/w % poloxamer 188 was prepared. The solution was administered subcutaneously to male beagle dogs at a dose level of about 12 mg/kg and male Wistar Han rats at a dose level of about 50 mg/kg. The pharmacokinetic profiles were determined, and the results for dogs are summarized in Table and Table, while the results for rats are summarized in Table and Table below.
as §2, with “500” for “400”, “14.06” for “17.00”, “30.12” for “36.40”
A solution of about 300 mg/mL of the compound of Formula (Ia) having 23.33 w/w % water, 48.99 w/w % PEG 300, 26.47 w/w % of a sodium salt of a compound of Formula (Ia), and 1.21 w/w % poloxamer 188 was prepared. The solution was administered subcutaneously to male beagle dogs at a dose level of about 6 mg/kg and male Wistar Han rats at a dose level of about 50 mg/kg. The pharmacokinetic profiles were determined, and the results for dogs are summarized in Table and Table, while the results for rats are summarized in Table and Table below.
as §2, with “18.80” for “17.00”, “40.25” for “36.40”, “34.38” for “35.20”, “1.57” for “6.40”
as §2, with “500” for “400”, “16.29” for “17.00”, “34.88” for “36.40”, “41.92” for “35.20”, “1.91” for “6.40”
A solution of about 400 mg/mL of the compound of Formula (Ia) having 20.90 w/w % water, 44.72 w/w % PEG 300, and 34.38 w/w % of a sodium salt of a compound of Formula (Ia) was prepared. […]

[1] = individual rats, solution T, 400 mg/mL
[2] = individual rats, solution U, 500 mg/mL
[3] = individual rats, solution V, 300 mg/mL
[4] = mean, n = 3 rats, solution R, 400 mg/mL
[5] = mean, n = 3 rats, solution S, 500 mg/mL
[6] = mean, n = 3 rats, solution V, 300 mg/mL
[7] = mean, n = 5 rats, solution T, 400 mg/mL
[8] = mean, n = 5 rats, solution U, 500 mg/mL
[9] = individual rats, solution R, 400 mg/mL
[10] = individual rats, solution S, 500 mg/mL

Q: For `CC(C)(C#Cc1ccc(-c2ccc(Cl)c3c(NS(C)(=O)=O)nn(CC(F)(F)F)c23)c([C@H](Cc2cc(F)cc(F)c2)NC(=O)Cn2nc(C(F)(F)F)c3c2C(F)(F)[C@@H]2C[C@H]32)n1)S(C)(=O)=O` [compound of Formula (Ia)], which concentration at 8 h [1] is on record?
A: 294 nM

Q: And the concentration at 8 h [2]?
A: 176 nM

Q: What about the concentration at 8 h [3] of the same compound?
A: 170 nM

Q: What about the concentration at 8 h [4] of the same compound?
A: 112 nM

Q: And the concentration at 8 h [5]?
A: 100 nM

Q: What about the concentration at 8 h [6] of the same compound?
A: 155 nM

Q: What about the concentration at 8 h [7] of the same compound?
A: 211 nM

Q: And the concentration at 8 h [8]?
A: 142 nM

Q: And the concentration at 24 h [9]?
A: 167 nM

Q: And the concentration at 24 h [10]?
A: 111 nM

Q: What about the concentration at 24 h [2] of the same compound?
A: 300 nM

Q: And the concentration at 24 h [3]?
A: 222 nM

Q: What about the concentration at 24 h [4] of the same compound?
A: 162 nM

Q: What about the concentration at 24 h [5] of the same compound?
A: 127 nM

Q: What about the concentration at 24 h [6] of the same compound?
A: 193 nM

Q: What about the concentration at 24 h [7] of the same compound?
A: 339 nM

Q: What about the concentration at 24 h [8] of the same compound?
A: 224 nM

Q: And the concentration at 48 h [9]?
A: 184 nM

Q: What about the concentration at 48 h [10] of the same compound?
A: 92.6 nM

Q: And the concentration at 48 h [3]?
A: 265 nM

Q: And the concentration at 48 h [4]?
A: 151 nM

Q: And the concentration at 48 h [5]?
A: 123 nM

Q: What about the concentration at 48 h [6] of the same compound?
A: 197 nM

Q: What about the concentration at 48 h [7] of the same compound?
A: 307 nM

Q: What about the concentration at 48 h [8] of the same compound?
A: 211 nM

Q: And the concentration at 72 h [9]?
A: 168 nM

Q: What about the concentration at 72 h [10] of the same compound?
A: 95.8 nM

Q: And the concentration at 72 h [1]?
A: 353 nM

Q: What about the concentration at 72 h [3] of the same compound?
A: 187 nM

Q: And the concentration at 72 h [4]?
A: 148 nM

Q: What about the concentration at 72 h [5] of the same compound?
A: 127 nM

Q: What about the concentration at 72 h [6] of the same compound?
A: 148 nM

Q: What about the concentration at 72 h [7] of the same compound?
A: 247 nM

Q: And the concentration at 72 h [8]?
A: 197 nM

Q: And the concentration at 96 h [9]?
A: 181 nM

Q: And the concentration at 96 h [10]?
A: 105 nM

Q: And the concentration at 96 h [2]?
A: 230 nM

Q: What about the concentration at 96 h [3] of the same compound?
A: 164 nM

Q: What about the concentration at 96 h [4] of the same compound?
A: 152 nM

Q: What about the concentration at 96 h [5] of the same compound?
A: 120 nM

Q: What about the concentration at 96 h [6] of the same compound?
A: 136 nM

Q: And the concentration at 96 h [7]?
A: 240 nM

Q: What about the concentration at 96 h [8] of the same compound?
A: 167 nM

Q: And the concentration at 168 h [9]?
A: 191 nM

Q: What about the concentration at 168 h [10] of the same compound?
A: 123 nM

Q: And the concentration at 168 h [3]?
A: 100 nM

Q: What about the concentration at 168 h [4] of the same compound?
A: 160 nM

Q: What about the concentration at 168 h [5] of the same compound?
A: 109 nM

Q: And the concentration at 168 h [6]?
A: 104 nM

Q: What about the concentration at 168 h [7] of the same compound?
A: 173 nM

Q: What about the concentration at 168 h [8] of the same compound?
A: 154 nM

Q: What about the concentration at 336 h [9] of the same compound?
A: 251 nM

Q: And the concentration at 336 h [3]?
A: 194 nM

Q: What about the concentration at 336 h [4] of the same compound?
A: 261 nM

Q: What about the concentration at 336 h [5] of the same compound?
A: 183 nM

Q: What about the concentration at 336 h [6] of the same compound?
A: 201 nM

Q: And the concentration at 336 h [7]?
A: 254 nM

Q: What about the concentration at 336 h [8] of the same compound?
A: 244 nM

Q: What about the concentration at 504 h [9] of the same compound?
A: 348 nM

Q: What about the concentration at 504 h [10] of the same compound?
A: 415 nM

Q: And the concentration at 504 h [3]?
A: 241 nM

Q: And the concentration at 504 h [4]?
A: 353 nM

Q: And the concentration at 504 h [5]?
A: 287 nM

Q: And the concentration at 504 h [6]?
A: 265 nM

Q: What about the concentration at 504 h [7] of the same compound?
A: 301 nM

Q: And the concentration at 504 h [8]?
A: 303 nM

Q: What about the concentration at 672 h [9] of the same compound?
A: 290 nM

Q: And the concentration at 672 h [10]?
A: 407 nM

Q: What about the concentration at 672 h [3] of the same compound?
A: 274 nM
